Tested on: morphine inhibition of prostaglandin E2 (PGE2) induced diarrhea
Assay: Antagonism of morphine-inhibited diarrhea in mice
Assay type: in vivo, mice (Swiss-Webster)
Details: morphine 1 mg/kg s.c., PGE2 320 μg/kg at 30 min, watery stools observed, result shown only in figure
Method: Albino mice of either sex (Swiss-Webster) weighing 20-30 g were used to determine the ability of an opioid antagonist to antagonize morphine inhibition of prostaglandin E2 (PGE2) induced diarrhea according to the method of Dajani et al. (1979). Briefly, mice are treated at time 0 with morphine, 1 mg/kg s.c. and an opioid antagonist, 60, 180, 240, 300, 360, 480, or 720 mg/kg orally; or 3, 10, 30, 100 or 140 mg/kg i.p; or saline, 0.1 ml/10 gm body weight orally or i.p. Mice are then treated at 30 min with PGE2, 320 μg/kg which consistently produced watery stools in the absence of morphine. […] Eleven to 24 mice were used per dose of an opioid antagonist for the oral and 6 are used for the i.p. routes. Data was analyzed using Fisher's exact probability test (Siegel, 1956). These studies were repeated using naltrexone, 0.005, 0.01, 0.05, 0.1, and 5 mg/kg i.p. and 0.5, 1, 2, and 4 mg/kg orally.

Structure (SMILES)	Inhibition of morphine blockade of PGE2-induced diarrhea
NC(=O)c1ccc2c(c1O)[C@]13CCN(CC4CC4)[C@H](C2)[C@]1(O)CC[C@@H](NC(CC(=O)O)C(=O)O)C3 (some centres unmarked) [Compound 13]	Inhibition of morphine blockade of PGE2-induced diarrhea
NC(=O)c1ccc2c(c1O)[C@]13CCN(CC4CC4)[C@H](C2)[C@]1(O)CC[C@@H](NC(=O)[C@@H](N)CC(=O)O)C3 [Compound 12]	Inhibition of morphine blockade of PGE2-induced diarrhea

Reference: US8354534B2, “Selective opioid compounds” (Alkermes, Inc., priority 2008, dated 2013)
